B1: FL-hCERT: hCERT with FL (FLAG) sequence added to amino end (protein, UniProt Q9Y5P4 1-624, looked up)
Ceramide transfer protein: MSDNQSWNSSGSEEDPETESGPPVERCGVLSKWTNYIHGWQDRWVVLKNNALSYYKSEDETEYGCRGSICLSKAVITPHDFDECRFDISVNDSVWYLRAQDPDHRQQWIDAIEQHKTESGYGSESSLRRHGSMVSLVSGASGYSATSTSSFKKGHSLREKLAEMETFRDILCRQVDTLQKYFDACADAVSKDELQRDKVVEDDEDDFPTTRSDGDFLHSTNGNKEKLFPHVTPKGINGIDFKGEAITFKATTAGILATLSHCIELMVKREDSWQKRLDKETEKKRRTEEAYKNAMTELKKKSHFGGPDYEEGPNSLINEEEFFDAVEAALDRQDKIEEQSQSEKVRLHWPTSLPSGDAFSSVGTHRFVQKPYSRSSSMSSIDLVSASDDVHRFSSQVEEMVQNHMTYSLQDVGGDANWQLVVEEGEMKVYRREVEENGIVLDPLKATHAVKGVTGHEVCNYFWNVDVRNDWETTIENFHVVETLADNAIIIYQTHKRVWPASQRDVLYLSVIRKIPALTENDPETWIVCNFSVDHDSAPLNNRCVRAKINVAMICQTLVSPPEGNQEISRDNILCKITYVANVNPGGWAPASVLRAVAKREYPKFLKRFTSYVQEKTAGKPILF
modifications: N-terminal FLAG tag

Tests used:
Type in all cases: cell-based, Chinese hamster
CHO-K1 cell = assay: influence of ceramide transport inhibitor on SM synthesis, [14C] serine labeling; conditions: 1 μM, FIG. 8
Procedure: (§1) CHO-K1 cell, LY-A2 cell, and LY-A2/hCERT cell were inoculated at the cell density of 1.0×10^6 per culture dish having the 60-mm diameter, and cultured at 33° C. overnight. Subsequently, it was exchanged with […] of Nutridoma medium, after [^14C] serine (0.75 μCi) or [^14C] choline (1.0 μCi) have been added, in the case where [^14C] serine is added, it was cultured for 2 hours, and in the case where [^14C] choline is added, it was cultured at 33° C. for 5 hours. However, in the case where the influence on (1R, 3R) HPA-12 is analyzed, after it was pretreated at […] for 15 minutes in 1.5 mL of Nutridoma medium to which 1 μM of (1R,3R) HPA-12 has been added (in control experiment, dimethylsulfoxide used for dissolving a drug was added at the concentration corresponding to 0.01% of the final concentration), [^14C] serine was added, and cultured at 33° C. for 2 hours. After the cell was washed twice in 2 mL of cooled PBS, dissolved in 900 μL of sodium dodecyl sulfate (SDS), then, 800 μL and 20 μL of dissolved matter were used for determining lipid extraction and protein concentration. For the purpose of analyzing lipid labeled with [^14C] serine, the lipid was separated by TLC by making acetic methyl/n-propanol/chloroform/methanol/0.25% KCl (25:25:25 10:9, volume ratio) development solvent. The radioactive lipid separated on the plate was detected and analyzed by an image analyzer.
(§2) The present inventors have already found a selective inhibitor with respect to ATP dependent ceramide transport pathway (J. Biol. Chem. 276,43994-44002, 2001). For the purpose of examining whether or not ceramide transport pathway recovered by introducing hCERT is a transport pathway which is sensitive to (1R,3R) HPA-12, the analysis of the influence of (1R, 3R) HPA-12 treatment with respect to SM biosynthesis was performed by performing a lipid metabolism labeling experiment using radioactive serine.

LY-A2 cell [1] = assay: as above; conditions: FIG. 8
Procedure: as §1, §2

LY-A2 cell [2] = assay: MCD resistance by counting the number of survived cells; conditions: LY-A2 cell infected with expressing retrovirus, FIGS. 10(A), 12(A)
Procedure: The method of selecting function recovery strain used herein was performed on the basis of the knowledge that a cell whose SM content has been reduced becomes highly sensitive to cholesterol drawing reagent/methylcyclodextrin (MCD), and the cell whose SM content has been recovered recovers the resistance to MCD. As described in the foregoing paragraph, after the infected cell that has been seeded and cultured at 33° C. overnight was washed twice in 10 mL of serum-free F12 medium, it has been at 37° C. for one hour in 25 mL. After the culture dish was washed three times with 12 mL of PBS, 25 mL of F12/NBS was added and cultured at 33° C. for 7 to 10 days. […]
It has been validated whether or not CERT protein and CERTL which is a large separate splicing type product having 26 amino acid residue complements the deletion of LY-A cell. […] The MCD resistance of the obtained (LY-A2+FL-hCERT) cell and ((LY-A2+FL-hCERTL) cell were measured by counting the number of survived cells in accordance with the method described in <Method of selecting MCD resistance recovery strain>. Moreover, the MCD resistance of (LY-A2+empty vector) cell, CHO-K1 cell and LY-A2 cell obtained by infecting LY-A2 cell using pLIB vector in which gene has not been inserted were also similarly measured. The results are indicated in FIG. 10(A). […]

Molecule	inhibition of SM synthesis (CHO-K1 cell)	inhibition of SM synthesis (LY-A2 cell [1]; 1 μM, cell printed as LY-A2 cell (first sentence of b175))	additional inhibition of SM biosynthesis (LY-A2 cell [1]; LY-A2 cell where HPA-12-sensitive pathway is impaired)	MCD resistance (LY-A2 cell [2])
CCCCCCCCCCCC(=O)N[C@@H](CO)C[C@@H](O)c1ccccc1 [(1R,3R) HPA-12, (1R,3R)N-(3-hydroxy-1-hydroxymethyl-3-phenyprol) dodecane amide]	significantly inhibited	significantly inhibited	another additional inhibition was not seen	
B1				significantly acquired the MCD resistance
